From patent publication US9884063B2, “Amido-substituted azole compounds” (Bayer Pharma Aktiengesellschaft, priority 2014, dated 2018)

Experiments:
[1] = test system: wildtype Wnt signaling cascade; experiment: HEK293 TOP Assay (Super TopFlash luciferase reporter, Wnt-3a stimulated); assay type: cell-based; details: Homo sapiens, HEK293, 16 h, HEK293 TOP reporter cell line, Wnt-3a at EC50, 16 hours incubation, compound dilution series 50 μM to 15 nM
Summary of the method: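 HEK293 cells stably carrying Super TopFlash (TOP) or FOP reporter, stimulated with recombinant human Wnt-3a (2500–5 ng/ml, two-fold steps). Both lines incubated in parallel with compound from 50 μM to 15 nM (3.16-fold) in CAFTY buffer pH 7.4 with 2 mM Ca2+ and 0.01% BSA; selectivity judged TOP vs FOP.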

[2] = test system: HEK293 FOP control reporter cell line; experiment: HEK293 FOP Assay (FOP control vector luciferase reporter); assay type: cell-based; details: Homo sapiens; HEK293 FOP control reporter cell line, 16 hours incubation, compound dilution series 50 μM to 15 nM
Summary of the method: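 Stable HEK293 line carrying the FOP vector (randomized, non-functional TCF sites; Geneticin-selected) was run in parallel with the TOP line. Cells were plated 24 h ahead at 10000/well and given recombinant human Wnt-3a at 2500–5 ng/ml. Compounds were tested at 50 μM–15 nM (3.16-fold steps) in CAFTY buffer, pH 7.4, with 2 mM Ca2+ and 0.01% BSA.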

[3] = target: T1, TNKS2 (Homo sapiens, UniProt Q9H2K2); experiment: Modified TNKS2 Assay 3 (BPS kit #80578, biotin-NAD+, 96 well); assay type: biochemical; details: human TNKS2, BPS kit #80578, 96 well
T1 sequence (Q9H2K2 1-1166): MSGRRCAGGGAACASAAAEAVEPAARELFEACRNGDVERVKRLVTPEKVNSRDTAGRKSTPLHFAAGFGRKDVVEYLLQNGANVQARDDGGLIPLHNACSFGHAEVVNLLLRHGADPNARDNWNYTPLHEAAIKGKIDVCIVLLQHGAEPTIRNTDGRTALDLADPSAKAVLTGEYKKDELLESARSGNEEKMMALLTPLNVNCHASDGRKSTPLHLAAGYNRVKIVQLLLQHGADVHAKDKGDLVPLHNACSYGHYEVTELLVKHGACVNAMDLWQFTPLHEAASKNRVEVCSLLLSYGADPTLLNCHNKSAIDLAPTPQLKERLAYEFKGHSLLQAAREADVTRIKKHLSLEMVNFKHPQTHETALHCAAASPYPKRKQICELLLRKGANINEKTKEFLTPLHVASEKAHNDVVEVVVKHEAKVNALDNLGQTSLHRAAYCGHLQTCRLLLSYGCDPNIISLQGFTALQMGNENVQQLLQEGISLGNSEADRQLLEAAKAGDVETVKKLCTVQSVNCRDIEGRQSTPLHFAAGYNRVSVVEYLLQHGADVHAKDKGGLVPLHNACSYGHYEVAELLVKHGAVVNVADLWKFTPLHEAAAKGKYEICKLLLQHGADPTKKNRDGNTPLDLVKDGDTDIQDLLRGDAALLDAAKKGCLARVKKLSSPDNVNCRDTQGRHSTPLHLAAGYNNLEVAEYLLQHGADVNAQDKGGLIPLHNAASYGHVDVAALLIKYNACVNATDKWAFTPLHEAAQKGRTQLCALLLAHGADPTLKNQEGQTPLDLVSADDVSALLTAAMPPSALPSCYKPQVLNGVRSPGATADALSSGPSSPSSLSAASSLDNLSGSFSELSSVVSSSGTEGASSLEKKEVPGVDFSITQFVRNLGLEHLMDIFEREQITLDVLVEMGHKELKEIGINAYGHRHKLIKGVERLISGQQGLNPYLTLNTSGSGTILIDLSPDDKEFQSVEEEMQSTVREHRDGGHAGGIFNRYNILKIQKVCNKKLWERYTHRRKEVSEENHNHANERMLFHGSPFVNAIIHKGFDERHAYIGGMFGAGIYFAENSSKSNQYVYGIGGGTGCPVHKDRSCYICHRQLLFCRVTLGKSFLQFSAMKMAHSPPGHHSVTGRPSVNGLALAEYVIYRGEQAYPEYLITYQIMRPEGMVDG
Procedure: The potency of the compounds against human TNKS2 according to the invention was assessed using a commercially available biotin/streptavidin binding assay kits from BPS Bioscience, San Diego, USA (Catalog #80578 for TNKS2). The incorporation of a biotin-labeled NAD+ during the […] catalyzed ribosylation of a suitable protein substrate was detected using with a streptavidin-HRP coupled chemi-luminescent readout. The intensity of the readout signal is proportional to the incorporated NAD^+. Inhibition of TNKS2 leads to a decreased incorporation of NAD^+ and consequently to a lower readout signal intensity in the corresponding TNKS2 assays. The concentration of a test compound that inhibits the enzyme activity by 50% (corresponds to half of the normed readout signal intensity) is reported as IC50. The assay conducted in a 96 well MTP format according to the manufacturer's protocol and using a BMG Pherastar MTP reader [BMG-Labtech, Offenburg, Germany].

| Structure (SMILES) | IC50 [1] [nM] | IC50 [3] [nM] | IC50 [2] [nM] |
| --- | --- | --- | --- |
| CC1CCCCN1CCNC(=O)c1[nH]cnc1C(=O)Nc1ccc(NC(=O)c2ccccc2Cl)cc1 (centres unmarked) [Example 153, N^4-{4-[(2-chlorobenzoyl)amino]phenyl}-N^5-[2-(2-methylpiperidin-1-yl)ethyl]-1H-imidazole-4,5-dicarboxamide] | 190 | 5 | 35000 |
| CN1CCN(CCNC(=O)c2[nH]cnc2C(=O)Nc2ccc(NC(=O)c3ccc(F)cc3Cl)cc2)CC1 [Example 238, N^4-{4-[(2-chloro-4-fluorobenzoyl)amino]phenyl}-N^5-[2-(4-methylpiperazin-1-yl)ethyl]-1H-imidazole-4,5-dicarboxamide] | 180 | 2 | 29000 |
| O=C(Nc1ccc(NC(=O)c2nc[nH]c2C(=O)NCCN2CCCC(O)C2)cc1)c1ccc(F)cc1Cl (centres unmarked) [Example 229, N^4-{4-[(2-chloro-4-fluorobenzoyl)amino]phenyl}-N^5-[2-(3-hydroxypiperidin-1-yl)ethyl]-1H-imidazole-4,5-dicarboxamide] | 110 | 4 | 44500 |
| O=C(Nc1ccc(NC(=O)c2nc[nH]c2C(=O)NCCCCN2CCCCC2)cc1)c1ccc(F)cc1Cl [Example 196, N^4-{4-[(2-chloro-4-fluorobenzoyl)amino]phenyl}-N^5-[4-(piperidin-1-yl)butyl]-1H-imidazole-4,5-dicarboxamide] | 650 | 20 | 30000 |
| O=C(Nc1ccc(NC(=O)c2nc[nH]c2C(=O)NCCCN2CCOCC2)cc1)c1ccc(F)cc1Cl [Example 204, N^4-{4-[(2-chloro-4-fluorobenzoyl)amino]phenyl}-N^5-[3-(morpholin-4-yl)propyl]-1H-imidazole-4,5-dicarboxamide] | 310 | 20 | 34500 |
| O=C(Nc1ccc(NC(=O)c2nc[nH]c2C(=O)NCCN2CCC(O)CC2)cc1)c1ccccc1Cl [Example 197, N^4-{4-[(2-chlorobenzoyl)amino]phenyl}-N^5-[2-(4-hydroxypiperidin-1-yl)ethyl]-1H-imidazole-4,5-dicarboxamide] | 140 | 1 | – |
| O=C(Nc1ccc(NC(=O)c2nc[nH]c2C(=O)NCCN2CCC2)cc1)c1ccccc1Cl [Example 190, N^5-[2-(azetidin-1-yl)ethyl]-N4-{4-[(2-chlorobenzoyl)amino]phenyl}-1H-imidazole-4,5-dicarboxamide] | 190 | 2 | 18000 |

Compounds with a lower IC50 [1], results first:

| IC50 [1] [nM] | IC50 [3] [nM] | Structure (SMILES) | IC50 [2] [nM] |
| --- | --- | --- | --- |
| 100 | 10 | CC1CCN(CCNC(=O)c2[nH]cnc2C(=O)Nc2ccc(NC(=O)c3ccccc3Cl)cc2)CC1 [Example 163, N^4-{4-[(2-chlorobenzoyl)amino]phenyl}-N^5-[2-(4-methylpiperidin-1-yl)ethyl]-1H-imidazole-4,5-dicarboxamide] | 37000 |
| 40 | 2 | CC1CCCCN1CCNC(=O)c1[nH]cnc1C(=O)Nc1ccc(NC(=O)c2ccc(F)cc2Cl)cc1 (centres unmarked) [Example 191, N^4-{4-[(2-chloro-4-fluorobenzoyl)amino]phenyl}-N^5-[2-(2-methylpiperidin-1-yl)ethyl]-1H-imidazole-4,5-dicarboxamide] | 31000 |
| 80 | < 0.5 | O=C(Nc1ccc(NC(=O)c2nc[nH]c2C(=O)NCCN2CCCC2)cc1)c1ccccc1Cl [Example 168, N^4-{4-[(2-chlorobenzoyl)amino]phenyl}-N^5-[2-(pyrrolidin-1-yl)ethyl]-1H-imidazole-4,5-dicarboxamide] | 27000 |
